Experimental findings from patent publication US20210161902A1, “EPICHAPEROME INHIBITOR THERAPY FOR TRAUMATIC BRAIN INJURY AND SEQUELAE THEREOF” (Samus Therapeutics, Inc, priority 2017, published 2021) are described below.

In the assay the target is Hsp90 such as brain Hsp90. Kind of assay: EC50 for binding to Hsp90 such as brain Hsp90. Particulars: concentration yielding half-maximal binding to Hsp90 such as brain Hsp90, or halving binding in a competition assay. From the text: Brain uptake may be indicative of binding of the epichaperome inhibitor to Hsp90 and preferably to brain Hsp90. Such binding assays may be carried out as described in published PCT application WO2008/005937.
BBB-permeable epichaperome inhibitors to be used in the methods provided herein may be further characterized by their EC50 for binding to Hsp90 such as brain Hsp90. (EC50, in this context, refers to the concentration of the inhibitor that yields half-maximal binding of the inhibitor to Hsp90 such as brain Hsp90, or alternatively if the measurement is performed in a competition assay it is the concentration of inhibitor at which the binding to Hsp90 is reduced by half.) Certain inhibitors may have an EC50 of 100 nM or less, including about 90 nM, about 80 nM, about 85 nM, about 70 nM, about 60 nM, about 50 nM, about 40 nM, about 30 nM, about 20 nM, about 10 nM, about 9 nM, about 8 nM, about 7 nM, about 6 nM, about 5 nM, about 4 nM, about 3 nM, about 2 nM, or about 1 nM. The EC50 might range from 0.1 to 10 nM, from 0.1 to 9 nM, from 0.1 to 8 nM, from 0.1 to 7 nM, from 0.1 to 6 nM, or from 0.1 to 5 nM. The EC50 might range from 0.1 to 20 nM, from 0.1 to 18 nM, from 0.1 to 15 nM, from 0.1 to 12 nM, or from 0.1 to 10 nM. In some instances, certain inhibitors have an EC50 of about 5-7 nM. […] In other instances, certain inhibitors have an EC50 of about 80-90 nM.

SMILES strings stand for the structures.

With `CC(C)(C)CNCCn1c(Sc2cc3c(cc2I)OCO3)nc2c(N)ncnc21` [Compound 1], the response was half-maximal at 6.9 nM (EC50).
